Reference: the kinase profiling compilation of Christmann-Franck et al. (2016)

Legend:
Experiment in all cases: KINOMEscan competition binding
Conditions in all cases: compound 10.0 µM
CHEK2 (human) = CHEK2 (human) (UniProt O96017)
PAK3 (human) = PAK3 (human) (UniProt O75914)
STK17B (human) = STK17B (human) (UniProt O94768)
RPS6KA6 KD2 (human) = RPS6KA6 KD2 (human) (UniProt Q9UK32)
PRKD3 (human) = PRKD3 (human) (UniProt O94806)
PTK2B (human) = PTK2B (human) (UniProt Q14289)
RPS6KA4 KD1 (human) = RPS6KA4 KD1 (human) (UniProt O75676)
EPHA3 (human) = EPHA3 (human) (UniProt P29320)
BMPR2 (human) = BMPR2 (human) (UniProt Q13873)
MAP3K10 (human) = MAP3K10 (human) (UniProt Q02779)
DCLK3 (human) = DCLK3 (human) (UniProt Q9C098)
MYLK (human) = MYLK (human) (UniProt Q15746)
RIPK1 (human) = RIPK1 (human) (UniProt Q13546)
MAPK6 (human) = MAPK6 (human) (UniProt Q16659)
STK35 (human) = STK35 (human) (UniProt Q8TDR2)
[1] = biological target: JAK1 JH2 pseudokinase (human) (UniProt P23458)
MLTK (human) = MLTK (human) (UniProt Q9NYL2)
TLK2 (human) = TLK2 (human) (UniProt Q86UE8)
ALK (human) = ALK (human) (UniProt Q9UM73)
MELK (human) = MELK (human) (UniProt Q14680)
MAPK1 (human) = MAPK1 (human) (UniProt P28482)
CDC42BPB (human) = CDC42BPB (human) (UniProt Q9Y5S2)
FGFR4 (human) = FGFR4 (human) (UniProt P22455)
Chain of FGFR4 (human) (P22455 whole entry, looked up): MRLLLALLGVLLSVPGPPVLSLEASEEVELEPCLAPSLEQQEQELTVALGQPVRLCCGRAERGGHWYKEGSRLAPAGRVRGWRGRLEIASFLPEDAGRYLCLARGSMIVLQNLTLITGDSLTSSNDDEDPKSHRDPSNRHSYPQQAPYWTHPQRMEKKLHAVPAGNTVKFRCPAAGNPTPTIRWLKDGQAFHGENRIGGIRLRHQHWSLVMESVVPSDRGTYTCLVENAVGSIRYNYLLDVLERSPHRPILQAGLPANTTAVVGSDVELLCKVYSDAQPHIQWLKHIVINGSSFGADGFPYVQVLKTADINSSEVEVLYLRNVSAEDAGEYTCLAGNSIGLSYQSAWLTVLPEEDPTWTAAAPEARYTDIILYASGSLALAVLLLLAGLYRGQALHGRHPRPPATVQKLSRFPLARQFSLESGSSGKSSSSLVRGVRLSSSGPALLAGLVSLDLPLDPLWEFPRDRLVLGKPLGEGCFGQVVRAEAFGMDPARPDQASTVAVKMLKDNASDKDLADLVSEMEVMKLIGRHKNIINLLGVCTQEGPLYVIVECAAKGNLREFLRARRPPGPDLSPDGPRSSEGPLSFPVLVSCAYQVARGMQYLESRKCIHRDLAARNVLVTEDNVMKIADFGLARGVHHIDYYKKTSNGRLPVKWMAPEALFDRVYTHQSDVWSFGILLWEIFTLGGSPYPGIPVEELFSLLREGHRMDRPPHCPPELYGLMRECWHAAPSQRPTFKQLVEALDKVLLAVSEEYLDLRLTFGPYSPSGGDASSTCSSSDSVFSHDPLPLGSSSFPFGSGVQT

FLT3 (human) = FLT3 (human) (UniProt P36888)
Chain of FLT3 (human) (P36888 whole entry, looked up): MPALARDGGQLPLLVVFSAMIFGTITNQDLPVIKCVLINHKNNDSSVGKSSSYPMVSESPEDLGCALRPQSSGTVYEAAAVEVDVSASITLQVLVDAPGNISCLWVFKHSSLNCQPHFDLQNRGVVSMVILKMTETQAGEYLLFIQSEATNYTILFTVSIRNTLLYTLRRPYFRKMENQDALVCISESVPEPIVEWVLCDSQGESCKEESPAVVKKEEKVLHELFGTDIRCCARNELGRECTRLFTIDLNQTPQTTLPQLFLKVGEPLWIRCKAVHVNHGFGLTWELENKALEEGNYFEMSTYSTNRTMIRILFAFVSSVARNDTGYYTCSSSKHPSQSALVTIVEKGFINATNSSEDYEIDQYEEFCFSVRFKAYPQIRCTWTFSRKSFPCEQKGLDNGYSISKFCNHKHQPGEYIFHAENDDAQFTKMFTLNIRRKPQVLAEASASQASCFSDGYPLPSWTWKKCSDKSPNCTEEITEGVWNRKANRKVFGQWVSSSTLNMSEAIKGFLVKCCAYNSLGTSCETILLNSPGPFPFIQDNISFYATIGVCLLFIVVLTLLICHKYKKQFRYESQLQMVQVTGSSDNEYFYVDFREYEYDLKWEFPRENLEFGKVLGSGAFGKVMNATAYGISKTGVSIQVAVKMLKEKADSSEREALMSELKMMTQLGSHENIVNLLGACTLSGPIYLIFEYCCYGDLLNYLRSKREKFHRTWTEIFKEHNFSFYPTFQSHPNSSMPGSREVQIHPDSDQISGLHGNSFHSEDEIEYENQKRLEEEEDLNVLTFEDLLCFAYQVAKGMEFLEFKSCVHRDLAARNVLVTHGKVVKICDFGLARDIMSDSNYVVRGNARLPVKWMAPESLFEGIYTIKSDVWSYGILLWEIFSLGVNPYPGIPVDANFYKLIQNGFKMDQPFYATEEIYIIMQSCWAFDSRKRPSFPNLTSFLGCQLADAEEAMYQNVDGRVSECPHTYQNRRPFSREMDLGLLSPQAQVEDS

CLK1 (human) = CLK1 (human) (UniProt P49759)
[2] = biological target: TYK2 JH1 catalytic (human) (UniProt P29597)
Chain of TYK2 JH1 catalytic (human) (P29597 whole entry, looked up): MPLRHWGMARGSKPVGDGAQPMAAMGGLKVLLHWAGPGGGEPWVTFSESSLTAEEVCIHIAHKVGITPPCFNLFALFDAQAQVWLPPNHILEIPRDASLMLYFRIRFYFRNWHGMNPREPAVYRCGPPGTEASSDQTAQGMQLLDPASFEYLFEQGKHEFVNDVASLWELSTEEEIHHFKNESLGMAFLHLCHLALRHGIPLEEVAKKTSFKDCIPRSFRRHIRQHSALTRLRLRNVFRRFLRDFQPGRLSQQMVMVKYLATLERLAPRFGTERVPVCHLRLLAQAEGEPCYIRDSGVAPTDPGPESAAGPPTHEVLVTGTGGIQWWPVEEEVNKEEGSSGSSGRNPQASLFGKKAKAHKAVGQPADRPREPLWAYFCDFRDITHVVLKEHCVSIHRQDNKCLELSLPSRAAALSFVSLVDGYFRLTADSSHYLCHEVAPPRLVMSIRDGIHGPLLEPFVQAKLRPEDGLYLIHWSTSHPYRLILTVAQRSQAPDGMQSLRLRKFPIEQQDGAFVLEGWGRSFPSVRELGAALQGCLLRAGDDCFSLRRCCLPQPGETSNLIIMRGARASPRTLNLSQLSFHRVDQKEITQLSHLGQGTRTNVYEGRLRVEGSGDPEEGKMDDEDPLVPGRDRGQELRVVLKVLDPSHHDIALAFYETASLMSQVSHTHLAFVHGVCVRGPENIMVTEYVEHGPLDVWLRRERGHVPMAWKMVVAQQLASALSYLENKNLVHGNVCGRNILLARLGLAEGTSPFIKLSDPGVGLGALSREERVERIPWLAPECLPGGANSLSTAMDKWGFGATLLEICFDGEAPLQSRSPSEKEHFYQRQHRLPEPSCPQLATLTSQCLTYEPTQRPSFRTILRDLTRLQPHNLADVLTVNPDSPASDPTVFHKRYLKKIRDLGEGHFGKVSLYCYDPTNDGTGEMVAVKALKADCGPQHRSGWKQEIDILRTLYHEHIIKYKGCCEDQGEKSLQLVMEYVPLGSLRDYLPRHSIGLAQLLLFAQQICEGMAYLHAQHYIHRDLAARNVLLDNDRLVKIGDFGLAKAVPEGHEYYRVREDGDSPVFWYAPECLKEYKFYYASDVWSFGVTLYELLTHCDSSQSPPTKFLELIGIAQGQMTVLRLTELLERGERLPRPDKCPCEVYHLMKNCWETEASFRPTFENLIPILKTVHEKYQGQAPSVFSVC

ERBB4 (human) = ERBB4 (human) (UniProt Q15303)
Chain of ERBB4 (human) (Q15303 whole entry, looked up): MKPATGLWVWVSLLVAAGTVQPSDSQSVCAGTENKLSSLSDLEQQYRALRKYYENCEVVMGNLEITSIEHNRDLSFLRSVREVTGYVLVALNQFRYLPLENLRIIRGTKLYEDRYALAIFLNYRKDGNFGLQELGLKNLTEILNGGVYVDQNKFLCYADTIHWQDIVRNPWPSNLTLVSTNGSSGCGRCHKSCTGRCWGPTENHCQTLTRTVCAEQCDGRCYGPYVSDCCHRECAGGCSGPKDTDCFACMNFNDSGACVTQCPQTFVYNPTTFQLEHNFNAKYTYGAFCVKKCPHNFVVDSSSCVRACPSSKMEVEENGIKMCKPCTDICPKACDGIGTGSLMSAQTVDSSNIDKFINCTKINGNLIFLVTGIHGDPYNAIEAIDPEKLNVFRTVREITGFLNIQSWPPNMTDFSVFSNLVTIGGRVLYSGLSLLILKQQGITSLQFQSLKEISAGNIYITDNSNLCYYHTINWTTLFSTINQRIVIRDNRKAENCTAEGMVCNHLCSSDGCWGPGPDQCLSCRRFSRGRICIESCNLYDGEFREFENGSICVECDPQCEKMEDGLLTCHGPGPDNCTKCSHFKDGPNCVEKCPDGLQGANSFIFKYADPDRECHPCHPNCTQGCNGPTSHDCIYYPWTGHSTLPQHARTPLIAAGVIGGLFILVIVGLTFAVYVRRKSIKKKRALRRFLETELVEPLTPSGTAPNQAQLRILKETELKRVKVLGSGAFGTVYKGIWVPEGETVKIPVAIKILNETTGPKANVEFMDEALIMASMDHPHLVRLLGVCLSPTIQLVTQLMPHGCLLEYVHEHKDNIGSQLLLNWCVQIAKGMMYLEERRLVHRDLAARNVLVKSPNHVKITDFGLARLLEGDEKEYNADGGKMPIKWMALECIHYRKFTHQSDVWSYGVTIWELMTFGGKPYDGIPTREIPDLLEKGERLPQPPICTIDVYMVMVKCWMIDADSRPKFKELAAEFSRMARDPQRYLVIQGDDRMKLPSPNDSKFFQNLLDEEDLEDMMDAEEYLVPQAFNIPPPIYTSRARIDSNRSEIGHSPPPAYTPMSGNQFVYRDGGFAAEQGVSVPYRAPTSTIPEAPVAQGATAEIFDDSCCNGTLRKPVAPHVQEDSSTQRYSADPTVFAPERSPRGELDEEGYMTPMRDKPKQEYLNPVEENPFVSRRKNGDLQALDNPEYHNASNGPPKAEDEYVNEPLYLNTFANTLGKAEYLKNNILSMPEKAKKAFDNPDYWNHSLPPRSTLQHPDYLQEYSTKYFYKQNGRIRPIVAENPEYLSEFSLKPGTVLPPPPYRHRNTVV

MAP4K3 (human) = MAP4K3 (human) (UniProt Q8IVH8)
LYN (human) = LYN (human) (UniProt P07948)
RPS6KA3 KD1 (human) = RPS6KA3 KD1 (human) (UniProt P51812)
[3] = system: PIK3CA (human), P42336 [H1047L]
SBK1 (human) = SBK1 (human) (UniProt Q52WX2)
GRK4 (human) = GRK4 (human) (UniProt P32298)
STK38 (human) = STK38 (human) (UniProt Q15208)
PLK2 (human) = PLK2 (human) (UniProt Q9NYY3)
ERBB3 (human) = ERBB3 (human) (UniProt P21860)
ERN1 (human) = ERN1 (human) (UniProt O75460)
[4] = system: PIK3CA (human), P42336 [E542K]

Chain of RPS6KA6 KD2 (human) (Q9UK32 whole entry, looked up): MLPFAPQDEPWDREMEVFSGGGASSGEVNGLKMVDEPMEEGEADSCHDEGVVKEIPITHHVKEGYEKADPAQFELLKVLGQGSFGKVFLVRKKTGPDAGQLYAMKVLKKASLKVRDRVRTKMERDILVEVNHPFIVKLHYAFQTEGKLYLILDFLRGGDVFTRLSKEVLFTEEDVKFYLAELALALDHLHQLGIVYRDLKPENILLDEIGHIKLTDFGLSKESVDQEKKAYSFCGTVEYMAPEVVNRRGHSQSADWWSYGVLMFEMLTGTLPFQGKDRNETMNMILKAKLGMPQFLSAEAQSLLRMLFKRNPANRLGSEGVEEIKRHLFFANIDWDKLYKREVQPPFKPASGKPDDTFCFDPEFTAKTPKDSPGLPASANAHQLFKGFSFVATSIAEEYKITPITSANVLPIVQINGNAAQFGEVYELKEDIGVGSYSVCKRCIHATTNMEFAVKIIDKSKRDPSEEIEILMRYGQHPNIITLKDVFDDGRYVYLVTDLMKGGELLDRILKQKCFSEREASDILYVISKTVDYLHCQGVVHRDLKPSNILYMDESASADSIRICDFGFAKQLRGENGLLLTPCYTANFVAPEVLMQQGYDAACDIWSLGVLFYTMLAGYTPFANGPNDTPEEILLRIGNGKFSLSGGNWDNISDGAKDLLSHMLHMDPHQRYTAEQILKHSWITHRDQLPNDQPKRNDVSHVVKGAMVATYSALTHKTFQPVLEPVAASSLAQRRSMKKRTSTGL

| SMILES | kinase still bound, per cent of control (PAK3 (human)) | kinase still bound, per cent of control (STK17B (human)) | kinase still bound, per cent of control (RPS6KA6 KD2 (human)) | kinase still bound, per cent of control (PRKD3 (human)) | kinase still bound, per cent of control (PTK2B (human)) | kinase still bound, per cent of control (RPS6KA4 KD1 (human)) | kinase still bound, per cent of control (EPHA3 (human)) | kinase still bound, per cent of control (BMPR2 (human)) | kinase still bound, per cent of control (MAP3K10 (human)) | kinase still bound, per cent of control (DCLK3 (human)) | kinase still bound, per cent of control (MYLK (human)) | kinase still bound, per cent of control (RIPK1 (human)) | kinase still bound, per cent of control (MAPK6 (human)) | kinase still bound, per cent of control [1] | kinase still bound, per cent of control (MLTK (human)) | kinase still bound, per cent of control (TLK2 (human)) | kinase still bound, per cent of control (ALK (human)) | kinase still bound, per cent of control (MELK (human)) | kinase still bound, per cent of control (MAPK1 (human)) | kinase still bound, per cent of control (CDC42BPB (human)) | further results |
| --- | --- | --- | --- | --- | --- | --- | --- | --- | --- | --- | --- | --- | --- | --- | --- | --- | --- | --- | --- | --- | --- |
| COc1cc(C)c(Sc2cnc(NC(=O)c3ccc(CNC(C)C(C)C)cc3)s2)cc1C(=O)N1CCN(C(C)=O)CC1 (stereo unspecified) | 100% | 100% | 100% | 100% | 100% | 100% | 25% | 100% | 100% | 4.2% | 100% | 100% | 100% | 100% | 100% | 100% | 4.6% | 100% | 100% | 100% | kinase still bound, per cent of control (CHEK2 (human)): 100%; kinase still bound, per cent of control (STK35 (human)): 100%; kinase still bound, per cent of control (FGFR4 (human)): 100%; kinase still bound, per cent of control (FLT3 (human)): 100%; kinase still bound, per cent of control (CLK1 (human)): 4.9%; kinase still bound, per cent of control [2]: 100%; kinase still bound, per cent of control (ERBB4 (human)): 100%; kinase still bound, per cent of control (MAP4K3 (human)): 100%; kinase still bound, per cent of control (LYN (human)): 100%; kinase still bound, per cent of control (RPS6KA3 KD1 (human)): 100% |
| COc1ccc(N(C(=O)Oc2cc(C(=O)Nc3cccc(C(F)(F)F)c3)ccc2C)c2ccnc(Nc3ccc(N4CCN(C)CC4)cc3)n2)c(OC)c1 | 11% | 100% | 100% | 100% | 0.9% | 100% | 0.1% | 1.1% | 100% | 100% | 100% | 100% | 100% | 100% | 2.1% | 100% | 10% | 100% | 100% | 100% | kinase still bound, per cent of control (FGFR4 (human)): 0.4%; kinase still bound, per cent of control (FLT3 (human)): 100%; kinase still bound, per cent of control (CLK1 (human)): 100%; kinase still bound, per cent of control [2]: 27%; kinase still bound, per cent of control (ERBB4 (human)): 9.8%; kinase still bound, per cent of control (MAP4K3 (human)): 100%; kinase still bound, per cent of control (LYN (human)): 0.95%; kinase still bound, per cent of control (RPS6KA3 KD1 (human)): 100% |
| COc1cc(N2CCC(C(N)=O)CC2)ccc1Nc1nc(N)c(Cl)c(Nc2ccccc2S(=O)(=O)C(C)C)n1 | 100% | 100% | 9% | 100% | 0.15% | 100% | 100% | 100% | 100% | 100% | 5% | 100% | 100% | 100% | 100% | 100% | 4.5% | 100% | 26% | 100% | kinase still bound, per cent of control (CHEK2 (human)): 14%; kinase still bound, per cent of control (STK35 (human)): 100%; kinase still bound, per cent of control (FGFR4 (human)): 100%; kinase still bound, per cent of control (FLT3 (human)): 100%; kinase still bound, per cent of control (CLK1 (human)): 0.7%; kinase still bound, per cent of control [2]: 100%; kinase still bound, per cent of control (ERBB4 (human)): 0.55%; kinase still bound, per cent of control (MAP4K3 (human)): 100%; kinase still bound, per cent of control (LYN (human)): 100%; kinase still bound, per cent of control (RPS6KA3 KD1 (human)): 100% |
| Cc1cn(-c2cc(C(=O)Nc3ccc(C)c(NC(=O)c4ccno4)c3)cc(C(F)(F)F)c2)cn1 | 100% | 100% | 100% | 100% | 100% | 100% | 9.5% | 100% | 100% | 100% | 100% | 100% | 100% | 100% | 7.8% | 100% | 100% | 100% | 100% | 100% | kinase still bound, per cent of control (CHEK2 (human)): 100%; kinase still bound, per cent of control (STK35 (human)): 100%; kinase still bound, per cent of control [3]: 100%; kinase still bound, per cent of control (SBK1 (human)): 100%; kinase still bound, per cent of control (GRK4 (human)): 100%; kinase still bound, per cent of control (STK38 (human)): 100%; kinase still bound, per cent of control (FGFR4 (human)): 100%; kinase still bound, per cent of control (PLK2 (human)): 100%; kinase still bound, per cent of control (ERBB3 (human)): 100%; kinase still bound, per cent of control (ERN1 (human)): 100%; kinase still bound, per cent of control (FLT3 (human)): 100%; kinase still bound, per cent of control (CLK1 (human)): 100%; kinase still bound, per cent of control [2]: 100%; kinase still bound, per cent of control (ERBB4 (human)): 100%; kinase still bound, per cent of control [4]: 100%; kinase still bound, per cent of control (MAP4K3 (human)): 100%; kinase still bound, per cent of control (LYN (human)): 4.8%; kinase still bound, per cent of control (RPS6KA3 KD1 (human)): 100% |
